Calls of active or inactive are those of the source.
Experiments:
[1] = biological target: T1, Estrogen receptor (Homo sapiens, UniProt P03372);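 note: potency for inhibiting coactivator peptide recruitment to the receptor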
T1 sequence (P03372 whole entry): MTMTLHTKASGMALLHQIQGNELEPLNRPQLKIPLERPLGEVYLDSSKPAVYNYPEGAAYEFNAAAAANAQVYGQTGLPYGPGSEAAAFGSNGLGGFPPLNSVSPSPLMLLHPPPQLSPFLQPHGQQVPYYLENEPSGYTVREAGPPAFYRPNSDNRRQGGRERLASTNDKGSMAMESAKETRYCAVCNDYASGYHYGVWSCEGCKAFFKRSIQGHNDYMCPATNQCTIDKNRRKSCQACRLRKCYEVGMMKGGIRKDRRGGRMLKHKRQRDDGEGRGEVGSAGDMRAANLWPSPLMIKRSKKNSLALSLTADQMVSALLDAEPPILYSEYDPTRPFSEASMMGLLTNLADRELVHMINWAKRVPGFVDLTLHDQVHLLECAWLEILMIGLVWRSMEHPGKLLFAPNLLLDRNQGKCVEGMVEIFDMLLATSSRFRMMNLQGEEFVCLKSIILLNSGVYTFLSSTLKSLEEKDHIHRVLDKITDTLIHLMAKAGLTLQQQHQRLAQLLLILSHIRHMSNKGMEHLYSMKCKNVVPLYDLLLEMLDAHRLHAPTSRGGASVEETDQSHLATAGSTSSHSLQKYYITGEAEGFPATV

[2] = luciferase reporter signal suppression in cells – H4 neuroglioma cells, luminescence, dose response (AID 1990); assay type: functional, cell-based
[3] = Luminescence Cell-Based Dose Response HTS to Identify Inhibitors of 5'UTR Stem-Loop Driven Prion Protein mRNA Translation in H4 Neuroglioblastoma Cells. [Related pubchem assays: 1827 (Project Summary), 1813 (Primary HTS)]; assay type: functional
[4] = alpha-synuclein stem-loop luciferase translation blockers – H4 neuroglioma cells, luminescence, confirmation (AID 1988); assay type: functional, cell-based
[5] = biological target: T2, Estrogen receptor beta (Homo sapiens, UniProt Q92731);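 note: recombinant ER-beta bound to coactivator SRC1 peptide in presence of estradiol agonist; inhibitors block coactivator peptide binding and lower the FRET signal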
T2 sequence (Q92731 whole entry): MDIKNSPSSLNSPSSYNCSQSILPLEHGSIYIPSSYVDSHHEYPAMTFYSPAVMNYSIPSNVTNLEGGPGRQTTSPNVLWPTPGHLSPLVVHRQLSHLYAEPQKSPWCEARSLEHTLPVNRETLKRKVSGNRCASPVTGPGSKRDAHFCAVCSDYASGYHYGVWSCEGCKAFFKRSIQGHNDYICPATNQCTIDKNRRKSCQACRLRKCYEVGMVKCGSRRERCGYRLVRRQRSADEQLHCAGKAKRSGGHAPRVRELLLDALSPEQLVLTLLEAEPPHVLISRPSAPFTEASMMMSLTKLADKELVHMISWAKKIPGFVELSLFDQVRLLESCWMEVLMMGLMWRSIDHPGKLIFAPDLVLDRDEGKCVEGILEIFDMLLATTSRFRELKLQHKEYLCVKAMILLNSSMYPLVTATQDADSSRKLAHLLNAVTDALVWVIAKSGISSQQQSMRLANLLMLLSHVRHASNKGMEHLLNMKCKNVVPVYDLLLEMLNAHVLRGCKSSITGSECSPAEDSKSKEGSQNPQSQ

[6] = biological target: T2, Estrogen receptor beta; assay: blockers of SRC-3 recruitment to ERβ – biochemical, ELISA, streptavidin-HRP readout, orthogonal assay, confirmation (AID 1060)
[7] = biological target: Voltage-dependent T-type calcium channel subunit alpha-1H (Homo sapiens, UniProt O95180); assay type: functional;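 note: channel activity triggered by adding a high calcium stimulation buffer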
Sequence of Voltage-dependent T-type calcium channel subunit alpha-1H (O95180 whole entry): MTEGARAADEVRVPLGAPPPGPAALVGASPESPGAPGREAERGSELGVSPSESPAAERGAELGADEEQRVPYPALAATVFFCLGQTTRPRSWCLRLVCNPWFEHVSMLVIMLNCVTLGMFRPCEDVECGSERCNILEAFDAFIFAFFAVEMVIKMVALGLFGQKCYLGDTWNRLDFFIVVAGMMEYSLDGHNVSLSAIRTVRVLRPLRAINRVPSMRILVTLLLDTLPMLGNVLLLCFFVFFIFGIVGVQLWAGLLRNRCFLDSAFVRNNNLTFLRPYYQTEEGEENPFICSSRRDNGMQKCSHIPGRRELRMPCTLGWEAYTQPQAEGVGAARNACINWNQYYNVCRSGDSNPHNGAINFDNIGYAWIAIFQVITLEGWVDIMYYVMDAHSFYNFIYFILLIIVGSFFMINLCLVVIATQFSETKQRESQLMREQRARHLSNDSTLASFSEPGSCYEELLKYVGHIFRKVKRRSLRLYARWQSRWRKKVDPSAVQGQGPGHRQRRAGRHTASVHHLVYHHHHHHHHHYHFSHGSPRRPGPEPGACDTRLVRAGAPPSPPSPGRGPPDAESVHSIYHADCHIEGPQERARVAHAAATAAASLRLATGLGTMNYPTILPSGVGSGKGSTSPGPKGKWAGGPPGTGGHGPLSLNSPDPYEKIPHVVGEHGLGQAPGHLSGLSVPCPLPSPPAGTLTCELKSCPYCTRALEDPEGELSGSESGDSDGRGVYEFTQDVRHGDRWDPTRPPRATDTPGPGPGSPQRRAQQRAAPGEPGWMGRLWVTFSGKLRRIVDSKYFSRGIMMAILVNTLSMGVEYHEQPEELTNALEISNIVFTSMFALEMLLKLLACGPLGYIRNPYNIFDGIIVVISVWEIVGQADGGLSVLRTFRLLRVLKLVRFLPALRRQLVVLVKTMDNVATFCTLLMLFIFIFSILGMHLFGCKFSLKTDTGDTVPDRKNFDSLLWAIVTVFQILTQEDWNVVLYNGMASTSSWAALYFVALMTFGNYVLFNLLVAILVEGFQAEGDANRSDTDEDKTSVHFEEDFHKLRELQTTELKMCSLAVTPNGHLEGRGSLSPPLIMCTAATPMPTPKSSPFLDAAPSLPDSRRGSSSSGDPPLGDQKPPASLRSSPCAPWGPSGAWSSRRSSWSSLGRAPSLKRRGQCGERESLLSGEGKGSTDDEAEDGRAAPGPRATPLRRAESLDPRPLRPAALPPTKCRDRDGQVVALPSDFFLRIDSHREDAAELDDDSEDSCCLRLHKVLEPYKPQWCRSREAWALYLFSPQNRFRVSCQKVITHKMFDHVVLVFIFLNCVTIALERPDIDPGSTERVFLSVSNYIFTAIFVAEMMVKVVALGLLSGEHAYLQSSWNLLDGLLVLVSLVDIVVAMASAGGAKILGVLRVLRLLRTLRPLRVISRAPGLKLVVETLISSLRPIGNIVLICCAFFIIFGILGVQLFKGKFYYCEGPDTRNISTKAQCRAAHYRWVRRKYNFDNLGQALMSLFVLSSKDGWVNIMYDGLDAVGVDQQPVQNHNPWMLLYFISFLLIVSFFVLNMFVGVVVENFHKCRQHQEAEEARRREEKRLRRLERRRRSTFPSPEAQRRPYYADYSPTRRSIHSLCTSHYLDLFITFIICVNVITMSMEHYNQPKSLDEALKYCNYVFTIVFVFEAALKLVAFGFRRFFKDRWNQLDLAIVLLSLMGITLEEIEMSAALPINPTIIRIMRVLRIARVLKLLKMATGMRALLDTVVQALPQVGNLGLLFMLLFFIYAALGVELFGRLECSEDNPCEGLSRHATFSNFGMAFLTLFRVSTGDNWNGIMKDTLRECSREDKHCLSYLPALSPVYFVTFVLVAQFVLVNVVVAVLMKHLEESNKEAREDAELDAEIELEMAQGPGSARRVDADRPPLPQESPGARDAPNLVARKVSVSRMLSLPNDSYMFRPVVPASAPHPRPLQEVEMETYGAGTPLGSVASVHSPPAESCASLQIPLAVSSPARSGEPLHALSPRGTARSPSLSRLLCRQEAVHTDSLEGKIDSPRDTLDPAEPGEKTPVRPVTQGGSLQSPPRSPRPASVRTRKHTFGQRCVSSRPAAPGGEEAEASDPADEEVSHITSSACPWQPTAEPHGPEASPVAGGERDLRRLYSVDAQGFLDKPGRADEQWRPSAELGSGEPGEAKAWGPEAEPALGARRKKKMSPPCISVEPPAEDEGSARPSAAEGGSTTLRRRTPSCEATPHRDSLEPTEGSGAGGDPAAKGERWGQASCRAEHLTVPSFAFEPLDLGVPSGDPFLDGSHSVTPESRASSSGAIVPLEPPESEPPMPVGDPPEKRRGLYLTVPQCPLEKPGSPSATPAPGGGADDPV

[8] = biological target: Peroxisome proliferator-activated receptor gamma/Nuclear receptor coactivator 3 (Homo sapiens, UniProt P37231); assay: (§1) TR-FRET dose response biochemical High Throughput Screening assay for agonists of the steroid receptor coactivator 3 (SRC-3) recruitment by the peroxisome proliferator-activated receptor gamma (PPAR gamma): non-selective agonists. [Related pubchem assays: 1301 (Confirmation screen.), 1048 (Primary screen.)]; assay type: functional
[9] = biological target: Peroxisome proliferator-activated receptor gamma/Nuclear receptor coactivator 1 (Homo sapiens, UniProt P37231); assay: as §1, with “1 (SRC-1)” for “3 (SRC-3)”, “assays (depositor defined):AID1300, AID1808, AID504735, AID631]” for “assays: 1301 (Confirmation screen.), 1048 (Primary screen.)]”; assay type: protein assay
[10] = biological target: Peroxisome proliferator-activated receptor gamma/Nuclear receptor coactivator 2 (Homo sapiens, UniProt P37231); assay: TR-FRET dose response biochemical High Throughput Screening assay for agonists of the steroid receptor coactivator 2 (SRC-2) recruitment by the peroxisome proliferator-activated receptor gamma (PPAR gamma): non-selective agonists. [Related pubchem assays: 1297, 1032 ]; assay type: functional
[11] = biological target: T3, E3 ubiquitin-protein ligase XIAP (Homo sapiens, UniProt P98170); assay: Counter Screen using XIAP-Bir3 for Chemical Antagonists of Bir1/2 domains of IAP-family anti-apoptotic proteins. [Related pubchem assays (depositor defined):AID1018, AID1449, AID1514, AID1638, AID1749, AID1750, AID488957, AID488963]
T3 sequence (P98170 whole entry): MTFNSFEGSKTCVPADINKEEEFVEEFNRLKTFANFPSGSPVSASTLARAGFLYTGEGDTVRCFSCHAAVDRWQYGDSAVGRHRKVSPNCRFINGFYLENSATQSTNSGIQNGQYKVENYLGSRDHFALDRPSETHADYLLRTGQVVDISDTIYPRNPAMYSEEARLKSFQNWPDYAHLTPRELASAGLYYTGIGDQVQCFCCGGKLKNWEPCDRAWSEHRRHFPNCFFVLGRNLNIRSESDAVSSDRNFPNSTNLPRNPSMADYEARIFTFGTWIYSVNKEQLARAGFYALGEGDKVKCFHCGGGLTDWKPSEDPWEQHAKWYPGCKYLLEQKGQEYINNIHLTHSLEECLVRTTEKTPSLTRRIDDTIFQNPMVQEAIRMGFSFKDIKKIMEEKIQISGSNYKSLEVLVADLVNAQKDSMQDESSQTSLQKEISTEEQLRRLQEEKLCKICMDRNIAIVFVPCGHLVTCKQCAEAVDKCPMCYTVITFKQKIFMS

[12] = biological target: T3, E3 ubiquitin-protein ligase XIAP; assay: small molecules displacing peptide from XIAP – biochemical, IAP family, fluorescence polarization (AID 1018); assay type: functional
[13] = cells; assay type: functional
[14] = tested on: Streptococcus; assay: GAS UMAA2166 growth inhibition – luminescence, BacTiterGlo, counter-screen for streptokinase expression inhibitor project, dose response (AID 1915); assay type: functional, organism-based;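 note: potency for reduction of bacterial viability or growth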
[15] = HepG2 cell cytotoxicity, dose response, cytotoxicity control for non-replicating M. tuberculosis project (AID 489018); assay type: functional; conditions: Mycobacterium tuberculosis
[16] = tested on: Streptococcus sp. 'group A'; assay: Streptococcus pyogenes SK(-)GAS viability under kanamycin – luminescence, BacTiterGlo, confirmation, counter-screen for streptokinase expression inhibitor project, dose response (AID 1900); assay type: functional, organism-based
[17] = THP-1 cell cytotoxicity, dose response, cytotoxicity control for non-replicating M. tuberculosis project (AID 489025); assay type: functional
[18] = Vero E6 cell cytotoxicity, dose response, cytotoxicity control for non-replicating M. tuberculosis project, secondary assay (AID 492998); assay type: functional, VeroE6; conditions: Vero C1008
[19] = biological target: T4, Bcl-2-like protein 10 (Homo sapiens, UniProt Q9HD36); assay: Bcl-B/TR3 peptide binding disruption – biochemical, fluorescence polarization, FITC-TR3 peptide, selectivity assay for Bfl-1 inhibitor project, primary screen (AID 748);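 note: fluorescence polarization from a fluorescein-labelled TR3 peptide binding purified Bcl-B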
T4 sequence (Q9HD36 whole entry): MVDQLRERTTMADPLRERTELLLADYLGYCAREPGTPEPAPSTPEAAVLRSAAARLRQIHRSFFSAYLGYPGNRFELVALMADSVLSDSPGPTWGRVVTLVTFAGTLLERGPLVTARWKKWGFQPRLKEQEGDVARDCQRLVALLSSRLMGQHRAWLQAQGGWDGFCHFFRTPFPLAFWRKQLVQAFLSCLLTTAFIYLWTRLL

[20] = biological target: T5, CAAX prenyl protease 2 (Homo sapiens, UniProt Q9Y256); assay: inhibition of Ras-converting CAAX protease Rce1 – biochemical, yeast membranes, quenched-peptide fluorescence, cherry-pick, dose response (AID 588849)
T5 sequence (Q9Y256 whole entry): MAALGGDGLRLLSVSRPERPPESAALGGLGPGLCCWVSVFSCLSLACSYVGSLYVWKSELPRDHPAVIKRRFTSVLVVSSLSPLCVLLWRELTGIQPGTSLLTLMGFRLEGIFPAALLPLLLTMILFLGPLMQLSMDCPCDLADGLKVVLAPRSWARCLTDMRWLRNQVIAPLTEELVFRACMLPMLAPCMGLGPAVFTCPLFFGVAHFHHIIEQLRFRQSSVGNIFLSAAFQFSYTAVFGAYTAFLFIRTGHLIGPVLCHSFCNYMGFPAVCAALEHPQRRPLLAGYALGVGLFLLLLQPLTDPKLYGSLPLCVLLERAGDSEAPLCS

[21] = biological target: Trypsin (Sus scrofa, UniProt P00761); assay: trypsin protease activity blockade – biochemical, quenched peptide fluorescence, cherry-pick, selectivity assay for Rce1 protease inhibitor project, dose response (AID 488789)
Sequence of Trypsin (P00761 whole entry): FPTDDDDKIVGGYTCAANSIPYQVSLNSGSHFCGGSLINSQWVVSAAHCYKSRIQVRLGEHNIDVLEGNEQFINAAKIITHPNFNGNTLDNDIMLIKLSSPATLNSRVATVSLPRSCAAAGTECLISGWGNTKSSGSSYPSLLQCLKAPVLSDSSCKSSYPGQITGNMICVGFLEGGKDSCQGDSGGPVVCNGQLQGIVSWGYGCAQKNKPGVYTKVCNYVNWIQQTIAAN

[22] = biological target: Troponin, cardiac muscle (Homo sapiens, UniProt P19429+P45379+P63316); assay: Fluorescence-based biochemical high throughput dose response assay for activators of the calcium sensitivity of cardiac Regulated Thin Filaments (RTF). [Related pubchem assays (depositor defined):AID493008, AID493018, AID504382, AID504383]; assay type: protein-complex assay

For `COc1ccc(Cn2c(=O)[nH]c3cc(C(=O)NCc4ccc5c(c4)OCO5)ccc3c2=O)cc1`, the IC50 [1] was 18.9 µM (active), the EC50 [2] was > 120 µM (not active) and the EC50 [3] was > 120 µM (not active). The EC50 [4] was 11 µM (active).
With `CSC1=N/C(=C\c2ccc(Br)o2)C(=O)S1` the IC50 [5] was 8.58 µM (active), the IC50 [1] was 22.1 µM (active) and the IC50 [6] was < 0.023 µM (not active).
For `Cc1ccc(-c2noc(CSc3nnc(Cc4cccs4)n3-c3ccccc3)n2)cc1`, the EC50 [7] was 3.56 µM (active).
With `CCn1c(=O)cc(SCC(=O)N2CCN(c3ccccc3F)CC2)c2ccccc21` the EC50 [8] was > 79.4 µM (not active), the EC50 [9] was > 79.4 µM (inactive) and the EC50 [10] was > 79.4 µM (not active).
For `Cc1cc(=O)oc2cc(OCc3ccc(C(=O)N4CCN(c5ccc([N+](=O)[O-])cc5)CC4)cc3)ccc12`, the IC50 [11] was > 100 µM (inactive) and the IC50 [12] was > 100 µM (not active).
In the case of `CCOc1ccc(-c2nnc(NC(=O)c3ccc(OCC(C)C)c(OC)c3)o2)cc1`, the IC50 [13] is reported as 36.7 µM (active), the EC50 [14] is reported as 1.76 µM (active) and the CC50 [15] is reported as > 20 µM (active). For the same compound, the EC50 [16] was 0.354 µM (active), the CC50 [17] was 13.8 µM (active) and the EC50 [7] was 11.3 µM (active). The CC50 [18] was 10.1 µM (active).
With `COC(=O)c1sc(-c2ccccc2)cc1NC(=O)C1CC1` the EC50 [8] was > 79.4 µM (not active), the EC50 [9] was > 79.4 µM (inactive) and the EC50 [10] was > 79.4 µM (not active).
For `Cc1ccc(S(=O)(=O)NC(=O)c2cc(C)n(CCCn3ccnc3)c2C)cc1`, the IC50 [19] was 74 µM (inactive).
With `CC1CCN(c2oc(-c3ccc(F)cc3)nc2C#N)CC1` the AC50 [20] was 9.46 µM (active) and the AC50 [21] was 3.18 µM (active).
For `CC(C)CN(C(=O)COC(=O)c1cc2c(s1)CCC2)C1CCS(=O)(=O)C1` (centres undefined), the IC50 [5] was 1.91 µM (active), the IC50 [1] was 2.95 µM (active) and the IC50 [6] was 1.94 µM (not active). The IC50 [19] was 26.6 µM (active).
In the case of `Cc1ccc(NC(=O)CN2C(=O)S/C(=C\C(=O)Nc3ccc(Cl)cc3)C2=O)cc1`, the IC50 [11] is reported as > 100 µM (inactive) and the IC50 [12] is reported as > 100 µM (not active).
In the case of `CCCN(CCC)S(=O)(=O)c1ccc(NS(=O)(=O)c2ccc(F)cc2)cc1`, the EC50 [7] is reported as 3.07 µM (active).
With `CCN(CC(=O)Nc1ccccc1C(F)(F)F)C(=O)c1ccc(-n2nc(C)c(CCC(=O)OC)c2C)cc1` the EC50 [22] was > 71.5 µM (inactive).
